Earlier results on two molecules are cited in US10561625B2, “Methods of treatment using sustained release sotalol formulations” (The Roshni Singh 2015 Trust, priority 2004, dated 2020).

By bioavailability is commonly meant the share of a dose that reaches the circulation, judged against a reference dose that is usually intravenous.

Test in data set [1]: not given
The source holds these as a separate data set.

Where a name gives a salt, the structure may show the parent alone.

As for `COCCc1ccc(OCC(O)CNC(C)C)cc1` (centres unmarked) [Metoprolol], the plasma half-life (in vivo) is 2.5 to 9.5 h. Further, in data set [1], the solubility in water entry is “freely soluble in water”.
On to `CC(C)NCC(O)c1ccc(NS(C)(=O)=O)cc1` (racemic) [Sotalol, 4′-(2-isopropylaminoethyl-1-hydroxy) methanesulphonanilide hydrochloride], for which the “elimination (exclusively renal) half-life” value (administered twice daily) is 8 to 12 h. Also, where the note is “after a dose of the current formulation”, the “peak plasma concentration (time)” value was 2 to 3 h. Moreover, the mean elimination half-life entry (current formulation) was “about 12 hours”. In addition, the bioavailability (in vivo) is given as 100%. Moreover, the “absorbed after oral ingestion” value (oral, no first-pass hepatic metabolism) was 100%. In data set [1], the solubility in water entry was “freely soluble in water”.
